Reference: ChEMBL document CHEMBL1201862, “PubChem BioAssay data set” (2004)
Active and inactive are the calls of the source.

Tests used:
[1] = Luminescence Cell-Based Dose Confirmation HTS to Identify Activators of 5'UTR Stem-Loop Driven Alpha-Synuclein mRNA Translation in H4 Neuroglioblastoma Cells. [Related pubchem assays: 1829 (Project Summary), 1814 (Primary HTS)]; assay type: functional
[2] = system: H4; assay: Luminescence Cell-Based Dose Response HTS to Identify Activators of 5'UTR Stem-Loop Driven Prion Protein mRNA Translation in H4 Neuroglioblastoma Cells. [Related pubchem assays: 1829 (Project Summary), 1814 (Primary HTS)]; assay type: functional; conditions: Homo sapiens
[3] = Luminescence Cell-Based Dose Response HTS to Identify Activators of Luciferase Translation or Activity in H4 […] Cells. [Related pubchem assays: 1829 (Project Summary), 1814 (Primary HTS)]; assay type: functional
[4] = biological target: T1, High affinity choline transporter 1 (Homo sapiens, UniProt Q9GZV3); assay: human choline transporter blockers, potency – cell-based, 5-point CRC, membrane potential dye, dose response (AID 504840); assay type: functional
T1 sequence (Q9GZV3 whole entry): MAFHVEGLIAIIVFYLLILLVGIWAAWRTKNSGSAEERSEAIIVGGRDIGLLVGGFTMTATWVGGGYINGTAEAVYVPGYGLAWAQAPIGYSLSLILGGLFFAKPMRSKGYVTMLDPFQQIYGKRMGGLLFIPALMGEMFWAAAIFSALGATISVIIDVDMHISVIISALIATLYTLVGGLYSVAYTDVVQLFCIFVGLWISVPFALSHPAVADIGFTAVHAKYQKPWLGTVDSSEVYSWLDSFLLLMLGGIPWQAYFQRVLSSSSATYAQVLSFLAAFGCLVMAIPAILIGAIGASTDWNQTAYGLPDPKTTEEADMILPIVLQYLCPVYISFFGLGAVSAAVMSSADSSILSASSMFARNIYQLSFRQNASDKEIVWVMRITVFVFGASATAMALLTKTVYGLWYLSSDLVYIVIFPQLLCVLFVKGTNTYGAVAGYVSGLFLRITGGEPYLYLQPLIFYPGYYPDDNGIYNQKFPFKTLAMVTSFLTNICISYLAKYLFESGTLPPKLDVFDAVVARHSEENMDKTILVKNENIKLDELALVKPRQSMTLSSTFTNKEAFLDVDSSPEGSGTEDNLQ

[5] = biological target: T2, Polyadenylate-binding protein 1 (Homo sapiens, UniProt P11940); assay: MLLE domain peptide-binding blockers, IC50 – biochemical, fluorescence polarization, FITC-PAM2 peptide, dose response (AID 602259); assay type: functional; conditions: read-out: IC50_Mean
[6] = biological target: T2, Polyadenylate-binding protein 1; assay: MLLE binding blockers, Cy5 peptide tracer – biochemical, fluorescence polarization, Cy5-PAM2 peptide, secondary, miRNA deadenylation inhibitor project, dose response (AID 602260); assay type: functional; conditions: read-out: IC50_Mean
[7] = biological target: T3, Corticotropin-releasing factor receptor 2/Corticotropin-releasing factor-binding protein (Homo sapiens, UniProt P24387+Q13324); assay: activators of CRF receptor 2 with binding protein – uHTS hits, confirmation (AID 602473); assay type: functional; conditions: read-out: EC50_Mean
T3 sequence (Q13324 whole entry): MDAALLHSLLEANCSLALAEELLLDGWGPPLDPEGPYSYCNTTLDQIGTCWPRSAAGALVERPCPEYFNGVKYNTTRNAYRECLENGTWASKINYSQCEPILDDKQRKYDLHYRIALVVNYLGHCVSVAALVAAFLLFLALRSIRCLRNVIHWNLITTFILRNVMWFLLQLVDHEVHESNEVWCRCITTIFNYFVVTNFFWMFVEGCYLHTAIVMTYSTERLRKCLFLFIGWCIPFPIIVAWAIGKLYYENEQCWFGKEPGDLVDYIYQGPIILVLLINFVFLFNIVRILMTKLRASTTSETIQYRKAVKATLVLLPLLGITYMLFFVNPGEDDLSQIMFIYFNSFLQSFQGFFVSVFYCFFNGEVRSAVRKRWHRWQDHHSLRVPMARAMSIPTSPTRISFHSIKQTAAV
T3 sequence (P24387 whole entry): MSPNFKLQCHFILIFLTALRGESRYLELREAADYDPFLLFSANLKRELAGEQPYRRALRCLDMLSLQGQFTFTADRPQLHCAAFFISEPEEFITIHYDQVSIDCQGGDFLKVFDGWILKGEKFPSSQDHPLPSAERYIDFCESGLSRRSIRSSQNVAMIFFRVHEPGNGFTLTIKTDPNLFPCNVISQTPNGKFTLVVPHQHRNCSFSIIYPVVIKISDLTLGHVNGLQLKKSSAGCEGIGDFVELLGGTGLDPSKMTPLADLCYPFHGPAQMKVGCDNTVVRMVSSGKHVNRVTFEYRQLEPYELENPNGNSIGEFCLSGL

[8] = biological target: T3, Corticotropin-releasing factor receptor 2/Corticotropin-releasing factor-binding protein; assay: Dose Response confirmation of uHTS hits for small molecule antagonists of the CRF-binding protein and CRF-R2 receptor complex.; assay type: functional; conditions: read-out: IC50_Mean
[9] = biological target: Large T antigen (Simian virus 40, UniProt P03070); assay type: functional, Betapolyomavirus macacae;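 also: Confirmatory-stage PubChem screen for compounds that inhibit SV40 T antigen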
[10] = system: INS1; assay: INS-1E survival protection against cytokine death – cell-based, luminescence, retest, dose response (AID 449756); assay type: functional; conditions: Rattus norvegicus;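 also: cell death triggered by IL-1 beta plus TNF-alpha plus IFN-gamma mixture; protective hits raise ATP signal compared with cytokine alone wells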
[11] = NIH-3T3 fibroblast cytotoxicity, dose response, cytotoxicity control, cell-based, fluorescence, Alamar Blue, secondary assay (AID 2327); assay type: functional;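 also: NIH-3T3 mouse fibroblasts cultured with fluconazole at 8 µg/mL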
[12] = Trypanosoma cruzi growth suppression in host cells – NIH3T3 host cells, beta-gal luminescence, confirmation (AID 2044); assay type: functional, cell-based;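 also: intracellular parasites grown in NIH/3T3 mouse fibroblasts as host cells; luminescent beta-galactosidase reporter signal from transgenic T. cruzi replicating inside host cells; inhibitors lower the luminescence signal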
[13] = alpha-synuclein stem-loop luciferase translation blockers – H4 neuroglioma cells, luminescence, confirmation (AID 1988); assay type: functional, cell-based
[14] = fluconazole-exposed Candida albicans growth modulators – fluorescence, retest, confirmation (AID 2467); assay type: functional, cell-based
[15] = NIH3T3 cell viability loss – ATP luminescence, mouse fibroblasts, counter-screen, dose response (AID 2010); assay type: functional, cell-based;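 also: cells exposed to compound for about 90 hours before reading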
[16] = Luminescence Cell-Based Dose Response HTS to Identify Inhibitors of 5'UTR Stem-Loop Driven Prion Protein mRNA Translation in H4 Neuroglioblastoma Cells. [Related pubchem assays: 1827 (Project Summary), 1813 (Primary HTS)]; assay type: functional
[17] = luciferase reporter signal suppression in cells – H4 neuroglioma cells, luminescence, dose response (AID 1990); assay type: functional, cell-based

T2 sequence (P11940 whole entry, the tested form may be a part): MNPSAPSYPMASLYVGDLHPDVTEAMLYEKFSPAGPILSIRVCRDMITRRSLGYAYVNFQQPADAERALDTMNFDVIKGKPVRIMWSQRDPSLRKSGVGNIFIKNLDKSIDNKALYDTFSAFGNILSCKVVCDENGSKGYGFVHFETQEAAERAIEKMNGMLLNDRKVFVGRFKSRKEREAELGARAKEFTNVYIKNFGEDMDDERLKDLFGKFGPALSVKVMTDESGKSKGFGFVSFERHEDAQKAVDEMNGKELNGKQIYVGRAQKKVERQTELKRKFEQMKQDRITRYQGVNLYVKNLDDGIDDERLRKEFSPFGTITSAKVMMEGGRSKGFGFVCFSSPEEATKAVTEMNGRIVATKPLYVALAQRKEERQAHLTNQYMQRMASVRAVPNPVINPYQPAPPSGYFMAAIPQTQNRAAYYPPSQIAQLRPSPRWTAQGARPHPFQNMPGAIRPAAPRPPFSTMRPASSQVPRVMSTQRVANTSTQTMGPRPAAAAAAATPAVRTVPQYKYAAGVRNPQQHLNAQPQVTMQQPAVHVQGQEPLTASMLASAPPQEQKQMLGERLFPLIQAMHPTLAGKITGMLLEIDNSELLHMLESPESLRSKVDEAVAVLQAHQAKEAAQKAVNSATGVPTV
Large T antigen, sequence (P03070 whole entry): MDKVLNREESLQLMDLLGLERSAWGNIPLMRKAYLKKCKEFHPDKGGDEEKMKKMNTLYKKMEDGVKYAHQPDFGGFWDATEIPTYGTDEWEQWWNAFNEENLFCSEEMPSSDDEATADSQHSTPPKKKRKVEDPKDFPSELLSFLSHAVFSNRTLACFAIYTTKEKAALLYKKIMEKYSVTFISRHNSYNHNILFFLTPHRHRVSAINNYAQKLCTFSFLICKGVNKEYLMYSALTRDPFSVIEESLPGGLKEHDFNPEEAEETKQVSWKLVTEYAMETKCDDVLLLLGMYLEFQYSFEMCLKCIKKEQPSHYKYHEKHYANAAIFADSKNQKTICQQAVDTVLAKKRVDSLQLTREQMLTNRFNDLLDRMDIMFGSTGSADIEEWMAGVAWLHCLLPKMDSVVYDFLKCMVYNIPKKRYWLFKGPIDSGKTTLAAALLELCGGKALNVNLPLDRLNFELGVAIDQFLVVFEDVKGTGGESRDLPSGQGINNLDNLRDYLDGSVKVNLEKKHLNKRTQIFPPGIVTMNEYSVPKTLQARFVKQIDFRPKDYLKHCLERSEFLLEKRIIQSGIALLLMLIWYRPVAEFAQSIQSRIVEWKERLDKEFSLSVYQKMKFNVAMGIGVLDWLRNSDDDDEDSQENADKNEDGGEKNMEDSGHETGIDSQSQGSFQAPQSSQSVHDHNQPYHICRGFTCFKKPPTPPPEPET

With Cn1c2c(c(=O)[nH]c1=O)C(c1ccc(O)cc1)C1=C(O)c3ccccc3C1=N2 (configuration not stated) the EC50 [1] was > 120 µM (not active), the EC50 [2] was > 120 µM (not active) and the EC50 [3] was > 120 µM (not active).

For NCCCCCc1nnc(SCc2ccc(Cl)c(Cl)c2)o1, the IC50 [4] was 13.2 µM (active).

With O=C(NC1=NCCS1)c1cccs1 the IC50 [5] was > 66 µM (inactive) and the IC50 [6] was > 66 µM (inactive).

In the case of CC1(C)Cc2ccccc2-c2c1c(=O)n(Cc1ccccc1)c1nnnn21, the EC50 [7] is reported as > 53 µM (inactive) and the IC50 [8] is reported as > 47.1 µM (inactive).

With O=C1c2ccccc2C2C3=C(O)CC(c4ccco4)CC3=Nc3ccccc3N12 (configuration not stated) the EC50 [1] was > 120 µM (not active), the EC50 [2] was > 120 µM (not active) and the EC50 [3] was 41 µM (active).

For Cc1ccc(CNc2ccc(N3CCOCC3)cc2)cc1, the IC50 [9] was 5.62 µM (active).

In the case of COc1ccc(NC(=O)NCCCN2CCc3ccccc3C2)cc1, the EC50 [7] is reported as > 53 µM (inactive) and the IC50 [8] is reported as > 47.1 µM (inactive).

With O=[N+]([O-])c1ccc(N2CCN(c3ccc(O)cc3)CC2)cn1 the IC50 [9] was 26.7 µM (active).

With Cc1cc(C)nc(N2N=C(CSc3ccc(Cl)cc3)CC2=O)n1 the IC50 [4] was 15.1 µM (active).

For CC(c1nc(O)c2ccccc2n1)N(C)c1ccc2ccccc2c1 (configuration not stated), the IC50 [5] was > 66 µM (inactive) and the IC50 [6] was > 66 µM (inactive).

With CCN(CC)c1ccc(NC(=O)c2cccc(C)c2OC)c(C)c1 the IC50 [9] was 32 µM (active).

For Cc1ccc(C(C)C)c(OCC(=O)NS(=O)(=O)c2ccc(Cl)cc2)c1, the IC50 [4] was 11.8 µM (active).

For COc1ccc(NC(=O)CN(C)C(=O)/C=C/c2ccc(S(=O)(=O)N3CCCCCC3)cc2)cc1, the AC50 [10] was 24.3 µM (active).

In the case of CCc1ccc(NC(=O)Cn2nc(C(=O)O)c3ccccc3c2=O)cc1, the EC50 [7] is reported as > 53 µM (inactive) and the IC50 [8] is reported as > 47.1 µM (inactive).

In the case of Cc1ccc2c(C)c(C(=O)N3CCC(N4CCC(C(=O)NC5CC5)CC4)CC3)oc2c1, the IC50 [4] is reported as 14.5 µM (active).

In the case of NC(=S)N/N=C1/CCSc2ccc3ccccc3c21, the IC50 [4] is reported as 6.48 µM (active).

With N#C/C(=N\Nc1cccc(Cl)c1)C(=O)c1ccccc1 the EC50 [7] was > 53 µM (inactive) and the IC50 [4] was 13.8 µM (active).

For CC(C)(C)C(=O)Nc1ccc(C(=O)N/N=C/c2ccccc2OC(=O)c2ccc(Cl)cc2)cc1, the AC50 [10] was 2.83 µM (active).

With COc1cc(/C=N/NC(=O)c2ccccc2O)ccc1OC(=O)CC1SC(=O)NC1=O (configuration not stated) the IC50 [9] was 35.1 µM (active).

With CC(C)[C@H]1C(=O)O[C@H](C(C)C)C(=O)N(C)[C@@H](C(C)C)C(=O)O[C@H](C(C)C)C(=O)N(C)[C@@H](C(C)C)C(=O)O[C@H](C(C)C)C(=O)N1C [ENNIATIN B] the EC50 [11] was 3.22 µM (inconclusive), the EC50 [12] was 0.853 µM (active) and the EC50 [13] was > 120 µM (not active). The AC50 [10] was 2.99 µM (active), the EC50 [14] was 0.374 µM (active) and the EC50 [15] was 3.66 µM (active). The EC50 [16] was > 120 µM (not active) and the EC50 [17] was 5.62 µM (active).
